Reference: US10273223B2, “Substituted 6,5-fused bicyclic heteroaryl compounds” (Epizyme, Inc., priority 2011, dated 2019)

Key:
[1] = target: EZH2 (PRC2 enzyme complex: EZH2, EED, Suz12, RbAp48) (Homo sapiens (Human), UniProt O75530+Q09028+Q15022+Q15910); test: PRC2 enzyme assay on peptide substrates (3H-SAM Flashplate)
From the text: S-adenosylmethionine (SAM), S-adenosylhomocyteine (SAH), bicine, KCl, Tween20, dimethylsulfoxide (DMSO) and bovine skin gelatin (BSG) were purchased from Sigma-Aldrich at the highest level of purity possible. Dithiothreitol (DTT) was purchased from EMD. ^3H-SAM was purchased from American Radiolabeled Chemicals with a specific activity of 80 Ci/mmol. 384-well streptavidin Flashplates were purchased from PerkinElmer.
Recombinant PRC2 Enzymes. Human PRC2 enzymes were purified as 4-component enzyme complexes co-expressed in Spodoptera frugiperda (sf9) cells using a baculovirus expression system. The subunits expressed were wild-type EZH2 (NM_004456) or EZH2 Y641F, N, H, S or C mutants generated from the wild-type EZH2 construct, EED (NM_003797), Suz12 (NM_015355) and RbAp48 (NM_005610). The EED subunit contained an N-terminal FLAG tag that was used to purify the entire 4-component complex from sf9 cell lysates. The purity of the complexes met or exceeded 95% as determined by SDS-PAGE and Agilent Bioanalyzer analysis.
The assays were all performed in a buffer consisting of 20 mM bicine (pH=7.6), 0.5 mM DTT, 0.005% BSG and 0.002% Tween20, prepared on the day of use. […] DMSO (1 μL) was added to columns 11, 12, 23, 24, rows A-H for the maximum signal control, and SAH, a known product and inhibitor of PRC2 (1 μL) was added to columns 11,12, 23, 24, rows I-P for the minimum signal control. A cocktail (40 μL) containing the wild-type PRC2 enzyme and H3K27me0 peptide or any of the Y641 mutant enzymes and H3K27me2 peptide was added by Multidrop Combi (Thermo). The compounds were allowed to incubate with PRC2 for 30 min at 25° C., then a cocktail (10 μL) containing a mixture of non-radioactive and ^3H-SAM was added to initiate the reaction (final volume=51 μL). […] The assays were stopped by the addition of non-radioactive SAM (10 μL) to a final concentration of 600 μM, which dilutes the ^3H-SAM to a level where its incorporation into the peptide substrate is no longer detectable. 50 μL of the reaction in the 384-well polypropylene plate was then transferred to a 384-well Flashplate and the biotinylated peptides were allowed to bind to the streptavidin surface for at least 1 h before being washed three times with 0.1% Tween20 in a Biotek ELx405 plate washer. The plates were then read in a PerkinElmer TopCount platereader to measure the quantity of ^3H-labeled peptide bound to the Flashplate surface, measured as disintegrations per minute (dpm) or alternatively, referred to as counts per minute (cpm).
The Hill Coefficient normally allowed to float but may also be fixed at 1 in a 3-parameter fit. Y is the % inhibition and X is the compound concentration.

[2] = target: EZH2 (PRC2 enzyme complex: EZH2, EED, Suz12, RbAp48) (Homo sapiens (Human), UniProt Q15910); test: as above; conditions: read-out: EZH2 IC50; PRC2 enzyme assays on peptide substrates; 4 nM enzyme, 30 min preincubation at 25° C.; EZH2 form (wild-type or Y641 mutant) not stated in tables
Chain of EZH2 (PRC2 enzyme complex: EZH2, EED, Suz12, RbAp48) (Homo sapiens (Human), UniProt Q15910) (Q15910 other isoform, or with tags, fused parts or gaps): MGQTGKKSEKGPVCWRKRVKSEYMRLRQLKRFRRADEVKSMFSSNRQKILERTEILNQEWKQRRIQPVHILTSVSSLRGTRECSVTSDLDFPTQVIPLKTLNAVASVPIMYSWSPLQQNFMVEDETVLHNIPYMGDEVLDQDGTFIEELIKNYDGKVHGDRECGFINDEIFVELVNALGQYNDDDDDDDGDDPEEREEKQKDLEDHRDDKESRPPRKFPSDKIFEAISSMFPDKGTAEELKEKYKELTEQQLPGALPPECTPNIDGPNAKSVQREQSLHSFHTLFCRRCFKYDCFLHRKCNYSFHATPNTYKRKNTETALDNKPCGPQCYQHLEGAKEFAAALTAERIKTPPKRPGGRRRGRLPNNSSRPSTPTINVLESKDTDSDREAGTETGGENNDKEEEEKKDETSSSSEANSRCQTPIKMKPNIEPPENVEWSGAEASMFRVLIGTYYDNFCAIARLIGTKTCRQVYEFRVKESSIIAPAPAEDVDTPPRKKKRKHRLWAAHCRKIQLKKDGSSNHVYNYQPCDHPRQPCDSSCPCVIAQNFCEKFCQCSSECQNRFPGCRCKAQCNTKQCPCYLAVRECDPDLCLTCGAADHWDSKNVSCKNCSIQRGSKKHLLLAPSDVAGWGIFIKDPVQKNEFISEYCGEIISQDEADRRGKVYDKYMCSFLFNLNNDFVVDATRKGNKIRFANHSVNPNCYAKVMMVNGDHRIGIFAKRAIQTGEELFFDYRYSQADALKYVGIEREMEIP
Chain of EZH2 (PRC2 enzyme complex: EZH2, EED, Suz12, RbAp48) (Homo sapiens (Human), UniProt Q15910) (O75530 whole entry partner): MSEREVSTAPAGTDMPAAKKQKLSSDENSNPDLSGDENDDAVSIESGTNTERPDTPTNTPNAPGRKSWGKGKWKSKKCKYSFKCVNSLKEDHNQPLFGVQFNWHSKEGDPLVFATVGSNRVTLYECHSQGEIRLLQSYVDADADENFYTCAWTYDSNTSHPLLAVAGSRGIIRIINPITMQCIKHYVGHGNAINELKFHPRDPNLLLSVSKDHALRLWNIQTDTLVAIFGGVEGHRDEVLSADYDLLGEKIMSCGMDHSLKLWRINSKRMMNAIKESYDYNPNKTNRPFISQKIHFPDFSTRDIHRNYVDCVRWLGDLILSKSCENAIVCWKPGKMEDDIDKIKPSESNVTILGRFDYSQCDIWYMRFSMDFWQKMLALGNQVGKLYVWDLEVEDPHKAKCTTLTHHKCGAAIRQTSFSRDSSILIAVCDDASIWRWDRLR
Chain of EZH2 (PRC2 enzyme complex: EZH2, EED, Suz12, RbAp48) (Homo sapiens (Human), UniProt Q15910) (Q15022 whole entry partner): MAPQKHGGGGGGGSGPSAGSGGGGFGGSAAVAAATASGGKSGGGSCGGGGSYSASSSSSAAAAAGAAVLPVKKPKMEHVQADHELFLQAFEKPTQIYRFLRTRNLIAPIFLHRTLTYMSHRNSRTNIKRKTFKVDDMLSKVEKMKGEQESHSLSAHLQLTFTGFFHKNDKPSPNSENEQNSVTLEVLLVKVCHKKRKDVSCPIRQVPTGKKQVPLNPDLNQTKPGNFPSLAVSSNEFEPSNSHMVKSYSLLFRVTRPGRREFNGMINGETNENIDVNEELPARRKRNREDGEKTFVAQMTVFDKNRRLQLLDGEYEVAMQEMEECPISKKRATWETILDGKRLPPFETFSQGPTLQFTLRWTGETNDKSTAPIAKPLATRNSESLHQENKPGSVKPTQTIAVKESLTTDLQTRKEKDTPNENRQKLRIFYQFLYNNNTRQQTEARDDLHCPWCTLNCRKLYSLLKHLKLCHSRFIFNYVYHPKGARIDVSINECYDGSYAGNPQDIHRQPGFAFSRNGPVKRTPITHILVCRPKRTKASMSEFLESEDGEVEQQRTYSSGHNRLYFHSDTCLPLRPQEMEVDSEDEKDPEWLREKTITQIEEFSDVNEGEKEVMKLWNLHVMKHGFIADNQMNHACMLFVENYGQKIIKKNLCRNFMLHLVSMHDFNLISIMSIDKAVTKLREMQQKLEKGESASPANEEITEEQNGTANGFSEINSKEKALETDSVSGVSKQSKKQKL
Chain of EZH2 (PRC2 enzyme complex: EZH2, EED, Suz12, RbAp48) (Homo sapiens (Human), UniProt Q15910) (Q09028 whole entry partner): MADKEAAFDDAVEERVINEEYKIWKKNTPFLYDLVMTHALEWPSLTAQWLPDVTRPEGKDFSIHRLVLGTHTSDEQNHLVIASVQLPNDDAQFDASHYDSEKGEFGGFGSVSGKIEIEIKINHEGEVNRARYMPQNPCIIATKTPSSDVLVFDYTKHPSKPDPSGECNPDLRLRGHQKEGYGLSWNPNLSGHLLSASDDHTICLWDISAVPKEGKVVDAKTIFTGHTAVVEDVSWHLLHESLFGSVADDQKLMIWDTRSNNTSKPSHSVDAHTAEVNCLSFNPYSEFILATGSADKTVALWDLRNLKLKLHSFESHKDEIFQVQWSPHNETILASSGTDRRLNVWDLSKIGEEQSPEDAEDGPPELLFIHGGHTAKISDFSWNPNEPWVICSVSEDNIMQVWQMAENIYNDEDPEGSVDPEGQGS

Chain of EZH2 (PRC2 enzyme complex: EZH2, EED, Suz12, RbAp48) (Homo sapiens (Human), UniProt O75530+Q09028+Q15022+Q15910) (Q15910 other isoform, or with tags, fused parts or gaps): as the sequence (Q15910 other isoform, or with tags, fused parts or gaps) above
Chain of EZH2 (PRC2 enzyme complex: EZH2, EED, Suz12, RbAp48) (Homo sapiens (Human), UniProt O75530+Q09028+Q15022+Q15910) (O75530 whole entry partner): as the sequence (O75530 whole entry partner) above
Chain of EZH2 (PRC2 enzyme complex: EZH2, EED, Suz12, RbAp48) (Homo sapiens (Human), UniProt O75530+Q09028+Q15022+Q15910) (Q15022 whole entry partner): as the sequence (Q15022 whole entry partner) above
Chain of EZH2 (PRC2 enzyme complex: EZH2, EED, Suz12, RbAp48) (Homo sapiens (Human), UniProt O75530+Q09028+Q15022+Q15910) (Q09028 whole entry partner): as the sequence (Q09028 whole entry partner) above

Row | IC50 [1] | IC50 [2] | Compound
1 | 0.3 to 1 µM | – | Cc1cc(C)c(CNC(=O)c2c(Cl)c(-c3ccc4c(c3)OCCO4)nc3c2cnn3C(C)C)c(=O)[nH]1 [Compound A-47]
2 | 1 to 3 µM | – | Cc1cc(C)c(CNC(=O)c2cc(C(C)C)nc3c2cnn3C(C)C)c(=O)[nH]1 [Compound B-109]
3 | – | < 300 nM | CNCCN1CCC(c2cc(C(=O)NCC3=C(C)C=C(C)NC3C)c3cnn(C4CCCC4)c3c2)CC1 [Compound D-51]
4 | – | < 300 nM | CC1=CC(C)=C(CNC(=O)c2cc(C3=CCN(C(=O)C4CN(C)C4)CC3)cc3c2cnn3C2CCCC2)C(C)N1 [Compound D-50]
5 | 10 to 50 µM | – | Cc1cc(C(C)C)c(CNC(=O)c2cc(C3=CC(C)(C)NC(C)(C)C3)nc3c2cnn3C(C)C)c(=O)[nH]1 [Compound B-148]
6 | – | < 300 nM | Cc1cc(C)c(CNC(=O)c2cc(C3CC(C)(C)NC(C)(C)C3)nc3c2cnn3C2CCCC2)c(=O)[nH]1 [Compound B-4, 1-cyclopentyl-N-((4,6-dimethyl-2-oxo-1,2-dihydropyridin-3-yl)methyl)-6-(2,2,6,6-tetramethylpiperidin-4-yl)-1H-pyrazolo[3,4-b]pyridine-4-carboxamide]
7 | 0.3 to 1 µM | – | Cc1cc(C)c(CNC(=O)c2cc(-c3cccc(CN(C)CCN4CCCC4)c3)nc3c2cnn3C(C)C)c(=O)[nH]1 [Compound A-41]
8 | 10 to 50 µM | – | Cc1cc[nH]c(=O)c1CNC(=O)c1cc(-c2ccc3c(c2)OCCO3)nc2c1cnn2C(C)(C)C [Compound A-77]
9 | 1 to 3 µM | – | Cc1cc(C)c(CNC(=O)c2cc(-c3cccc(CNCCCN(C)C)c3)nc3c2cnn3C(C)C)c(=O)[nH]1 [Compound A-125]
10 | 3 to 10 µM | – | Cc1cc(C)c(CNC(=O)c2cc(-c3ccccc3CN)nc3c2cnn3C(C)C)c(=O)[nH]1 [Compound A-68]
11 | 10 to 50 µM | – | Cc1cc(C)n(C)c(=O)c1CNC(=O)c1cc(-c2cccc(CN(C)CCN(C)C)c2)nc2c1cnn2C(C)C [Compound A-74]
12 | 1 to 3 µM | – | CNCCN(C)Cc1cccc(-c2cc(C(=O)NCc3c(C)cc(C)[nH]c3=O)c3cnn(C(C)C)c3n2)c1 [Compound A-58]
